Several values for one entry are separate records, joined by “and”; a condition that tells them apart may be missing. Equal values may be shown once.
What was measured:
A2780-ADR cells = assay: MTT viability assay, reversal of MDR in P-gp overexpressing A2780-ADR cells; type: cell-based, human; conditions: for Reversal of MDR in A2780-ADR cells: 15 µM compound with or without 500 nM PTX, 48 h, MTT; for Mean % Survival / % Survival (individual sample) / viability at 15 µM: A2780-ADR cells; for Mean % Survival / viability at 15 µM: mean of 12 samples; for % Survival (individual sample): single samples (trials 1-3, samples 1-4); for viability at 15 µM: Homo sapiens, A2780 ADR, read-out: Mean % Survival
Description: The chemotherapeutic sensitive DU145 human prostate cancer cells and the multidrug resistant sub-line, DU145-TXR, were generous gifts from Dr. Evan Keller (University of Michigan, Ann Arbor, MI). The MDR, P-gp overexpressing DU145-TXR cells were maintained under positive selection pressure by supplementing complete medium with 10 nM paclitaxel (Acros Organics, NJ). In addition to the aforementioned cell lines, the chemotherapeutic sensitive A2780 ovarian cancer cells (93112519, Sigma) and the multidrug resistant A2780-ADR (93112520, Sigma) were maintained in complete RPMI media consisting of RPMI-1640 with L-glutamine, 10% fetal bovine serum (FBS; Corning), 100 U/mL penicillin and 100 μg/mL streptomycin in a humidified incubator at 37 °C and 5% CO2. The MDR, P-gp overexpressing A2780-ADR cell line was maintained under positive selection pressure by supplementing complete medium with 100 nM doxorubicin (Fisher Scientific, NJ). The non-cancerous HFL1 (human lung fibroblast) cell line cell line was a generous gift from Dr. Robert Harrod (Southern Methodist University, Dallas, TX) and was maintained in complete F12K media consisting of F12K with 10% fetal bovine serum, 100 U/mL penicillin, and 100 µg/mL streptomycin (Gibco). Flasks and 96 well plates that were used with the non-cancerous line HFL1 were pre-treated with 0.1 mg/ml Collagen Type 1 (Gibco) and rinsed with PBS (Fisher).
Culture of the DU145, DU145-TXR, and HFL1 cell lines was performed as described in [8]. Culture of the A2780 and A2780-ADR cell lines was performed as described in [9]. MTT assays were performed as described in [8] with minor modifications. LC-MS/MS accumulation assays were performed as described in {Nanayakkara, 2018 #173} [9] with some modifications. […] The inhibitor concentration was lowered to 15 µM here, as the goal of the study was to identify compounds that were effective in reversing MDR at low concentrations, and to determine if the expanded virtual-assisted methods improved on our first-draft attempt. Compounds 56–98 were pre-screened using Resazurin cell viability assays: cells were incubated with 15 µM compound with or without 500 nM PTX for 48 hours, after which cell survival was assessed similar to [39]. Data represent the mean of two separate experiments, with n = 3 samples per experiment (n = 6 total) (S4 Table). The top performing compounds from this initial screen were re-tested with MTT viability assays against DU145-TXR cells, as described below.
MTT assays measure the reduction of yellow, water soluble 3-(4,5-dimethylthiazol-2-yl)-2,5-diphenyltetrazolium bromide (MTT) to blue, insoluble formazan crystals by cellular reductase processes in living cells. Cells were trypsinized from monolayers and seeded in complete medium in 96 well plates. Cancerous cell lines (DU145, DU145-TXR, A2780, A2780-ADR) were seeded at 3,000 cells per well in complete RPMI medium. The non-cancerous HFL1 line was seeded at 4,000 cells per well in complete F12K medium, in collagen-treated plates (Collagen Type 1, Gibco). Cells were incubated with experimental compounds for 48 hours at 37 °C and 5% CO2 in a humidified incubator. At 48 hours, MTT was added (20 µL/well of 5 mg/mL MTT in PBS) to each well. After incubation for 4 hours, the media was removed, and the formazan crystals were dissolved in 100 µL DMSO per well. Plates containing the semi-adherent A2780 or A2780-ADR lines were spun at 1400 rpm for 3 minutes prior to aspiration of media, and the addition of DMSO. Plates were shaken for 10 minutes at 500 rpm on an Orbital shaker (LabDoctor from MidSci, St Louis, MO). The absorbance was measured at 570 nm using a Bio-Tek Cytation 5 (Bio-Tek, Winooski, VT). The measured absorbance value was correlated with the number of metabolically active cells in that well, corrected for absorbance of media. […]

[1] = SWISS-ADME computational analysis of chemical properties; conditions: predicted aqueous solubility compared to that observed in the laboratory
Source text: Identifying P-gp inhibitors that are not transport substrates remains inherently challenging. To that end, computational tools such as the SWISS-ADME server attempt to use a molecule’s unique chemical and structural characteristics to predict whether it is likely to be a P-gp transport substrate. Our LC-MS/MS assays allowed us to retroactively test the validity of predictions from SWISS-ADME. […] Alternative identifiers for the molecules identified in this study are shown in S7 Table.
S1 Table. Known P-gp Inhibitors and Predicted Chemical Properties. A non-exhaustive list of known P-gp inhibitors and their selected chemical properties ^[64, 65]. Clinical trial outcomes were adapted from ^[10, 11]. Compounds were evaluated using the SWISS-ADME server ^[54]. […] “Predicted P-gp Substrate” - predicted by SWISS-ADME to be a transport substrate of P-gp. “Known P-gp Substrate” – In addition to being P-gp inhibitors, these molecules are: known transport substrates of P-gp, known non-transport substrates of P-gp, unknown whether it is a transport substrate of P-gp ^[66-68]. If the molecule is designated in a specific generation of P-gp inhibitors - First Generation P-gp inhibitors, Second generation P-gp inhibitors, Third generation P-gp inhibitors.

| SMILES | Reversal of MDR in A2780-ADR cells (A2780-ADR cells) | Mean % Survival (A2780-ADR cells; 15 µM compound + 500 nM PTX) [%] | % Survival (individual sample) (A2780-ADR cells; 15 µM compound + 500 nM PTX) | % Survival (individual sample) (A2780-ADR cells; 15 µM compound alone) | viability at 15 µM (A2780-ADR cells; 15 µM compound alone) [%] | Correct Water Solubility Prediction? [1] |
| --- | --- | --- | --- | --- | --- | --- |
| Cc1onc(-c2ccccc2)c1-c1nnc(Cn2cnc3ccccc3c2=O)o1 [Compound 111, Cc1onc(c1-c1nnc(Cn2cnc3ccccc3c2=O)o1)-c1ccccc1] | reversed MDR in A2780-ADR cells | 47.6 | 52% and 38% | 95% and 98% | 97.3 | Yes |
| O=C(NCc1cccc(F)c1)c1nnn2c1Sc1c(C(=O)NCc3cccc(F)c3)nnn1CC2 [Compound 122, Fc1cccc(CNC(=O)c2nnn3CCn4nnc(C(=O)NCc5cccc(F)c5)c4Sc23)c1] | reversed MDR in A2780-ADR cells | 45.8 | 50% and 51% and 45% | 104% and 83% | 89.7 | Yes |
| O=C(c1nc(-c2ccccn2)no1)N1CCN(c2nsc3ccccc23)CC1 [Compound 124, O=C(N1CCN(CC1)c1nsc2ccccc12)c1nc(no1)-c1ccccn1] | reversed MDR in A2780-ADR cells | 52.5 | 58% | 94% and 91% | 92.5 | Yes |

Source: publication PMC12349723, “Computationally accelerated identification of P-glycoprotein inhibitors” (PLOS One, 2025)
